Test in all cases: FMN fluorescence quenching on binding to apoprotein, time trace
The target in test [1] is T1, F44YRNC (ribosome-nascent chain complex of F44Y flavodoxin) (Azotobacter vinelandii, UniProt P00324, F45Y/C70A).
T1 construct: gene nifF; fusion: triple StrepII tag, Smt3, flavodoxin, TEV site, linker, SecM; stalled on E. coli ribosome, made in vitro with PURExpress, Strep-Tactin purified; tags kept
The settings on record: buffer I (HEPES-KOH, magnesium acetate), pH 7.4, 25 °C; 50 nM RNC, 25 nM FMN; stalled on ribosome.

Test [2] deals with T2, apo-F44YP (released F44Y flavodoxin construct) (Azotobacter vinelandii, UniProt P00324, F45Y/C70A).
T2 construct: gene nifF; tags kept
To be noted: 100 mM potassium PPi, 25 °C; refolded apo-F44YP 147 nM, 25 nM FMN.

The target in test [3] is T3, flavodoxin (C69A apoflavodoxin; F44Y apoflavodoxin) (Azotobacter vinelandii, UniProt P00324, C70A).
T3 construct: gene nifF; full-length isolated apoflavodoxin, 179 residues, expressed in E. coli TG2; FMN removed
The settings on record: 10 or 100 mM potassium PPi, pH 6.0, 25 °C; 140 nM protein, 25 nM FMN.

T1 sequence (P00324 2-180 F45Y/C70A, one chain of several): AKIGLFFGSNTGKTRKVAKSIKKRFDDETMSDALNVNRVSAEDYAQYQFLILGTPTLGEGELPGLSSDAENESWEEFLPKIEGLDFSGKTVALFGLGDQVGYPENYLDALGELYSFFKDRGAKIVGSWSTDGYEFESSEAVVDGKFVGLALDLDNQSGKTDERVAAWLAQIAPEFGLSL
T2 sequence (P00324 2-180 F45Y/C70A): as the sequence (P00324 2-180 F45Y/C70A, one chain of several) above
T3 sequence (P00324 2-180 C70A): as the sequence (P00324 2-180 F45Y/C70A, one chain of several) above, with Y44F counted along it

As for `Cc1cc2nc3c(=O)[nH]c(=O)nc-3n(C[C@H](O)[C@H](O)[C@H](O)COP(=O)(O)O)c2cc1C` [FMN], the “FMN fluorescence quenching on binding to apoprotein, time trace” value is “F44YRNC binds FMN rapidly at both salt concentrations” in test [1], “the FMN binding trace of this refolded apo-F44YP was measured in various buffers” in test [2] and “time-dependent decrease of FMN fluorescence upon cofactor binding to C69A apoflavodoxin” in test [3].

The record behind these values is PMC5207065, “The Ribosome Restrains Molten Globule Formation in Stalled Nascent Flavodoxin” (The Journal of Biological Chemistry, 2016).
